Experimental data reported in PubChem BioAssay (NCI).
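Tested at 5 concentrations; 48 h exposure; 96-well plates; endpoints linearly interpolated, else capped at highest concentration. GI50 marks 50% less growth. TGI is the concentration that stops growth completely.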

Key:
Experiment in all cases: growth of human tumour cells (NCI), 48 h
[1] = system: SK-MEL-2 melanoma
[2] = system: KM12 colon
[3] = system: MOLT-4 leukemia
[4] = system: HCT-15 colon
[5] = system: SK-MEL-5 melanoma
[6] = system: HL-60(TB) leukemia
[7] = system: OVCAR-4 ovarian
[8] = system: SF-268 CNS
[9] = system: DU-145 prostate
[10] = system: HS 578T breast

O=S(=O)([O-])[O-].[OH3+].[OH3+].[OH3+].[Ru+2].c1ccccc1 gave a GI50 [1] of over 100 µM, a TGI [1] of over 100 µM and a GI50 [2] of over 100 µM. For the same compound, the TGI [2] was over 100 µM, the GI50 [3] was over 100 µM and the TGI [3] was over 100 µM. The GI50 [4] was over 100 µM, the TGI [4] was over 100 µM and the GI50 [5] was over 100 µM. It also gave a TGI [5] of over 100 µM, a GI50 [6] of over 100 µM and a TGI [6] of over 100 µM. For the same compound, the GI50 [7] was over 100 µM, the TGI [7] was over 100 µM and the GI50 [8] was over 100 µM. The TGI [8] was over 100 µM.

Work on CN(N=O)C(=O)Nc1c[nH]c(=O)[nH]c1=O yielded a TGI [1] of over 100 µM, a TGI [2] of over 100 µM and a TGI [3] of over 100 µM. For the same compound, the TGI [4] was over 100 µM, the TGI [5] was over 100 µM and the TGI [6] was over 100 µM. For the same compound, the TGI [7] was over 100 µM and the TGI [9] was over 100 µM.

CSC(=S)c1ccc(C(=S)SC)cc1 showed a TGI [2] of over 100 µM, a TGI [3] of over 100 µM and a TGI [4] of over 100 µM. The TGI [5] was over 100 µM, the TGI [6] was over 100 µM and the TGI [7] was over 100 µM. For the same compound, the TGI [8] was over 100 µM.

Compound CCCc1c2c([nH]c(=O)c1C)C(=O)c1[nH]c(=O)c(C)c(CCC)c1C2=O has a TGI [3] of 57 µM, a TGI [4] of 58.3 µM and a TGI [5] of 17.6 µM. The TGI [6] was 24.8 µM, the TGI [7] was 54.6 µM and the TGI [8] was 87.4 µM.

With CCOC(=N)CC(=O)Nc1ccc(Cl)cc1 the TGI [1] was over 100 µM, the TGI [2] was over 100 µM and the TGI [3] was over 100 µM. It also gave a TGI [4] of over 100 µM, a TGI [5] of over 100 µM and a TGI [6] of over 100 µM. It also gave a TGI [7] of over 100 µM and a TGI [8] of over 100 µM.

Work on CN(C)c1ccc(-c2cc(=O)c3ccccc3[nH]2)cc1 yielded a TGI [2] of over 100 µM, a TGI [3] of over 100 µM and a TGI [4] of over 100 µM. The TGI [6] was over 100 µM and the TGI [8] was over 100 µM.

Work on CCCCCCCCCCCCN1C(C)=CS/C1=C\C=C\c1scc(C)[n+]1CCCCCCCCCCCC yielded a GI50 [10] of 1.77 µM, a TGI [10] of 6.62 µM and a GI50 [3] of 2.55 µM. For the same compound, the TGI [3] was over 100 µM, the GI50 [4] was 2.32 µM and the TGI [4] was 21.6 µM. The GI50 [7] was 1.43 µM, the TGI [7] was 13.2 µM and the GI50 [8] was 1.98 µM. The TGI [8] was 5.7 µM, the GI50 [9] was 2.38 µM and the TGI [9] was 10.5 µM.

Oc1ccc(C(c2ccccc2)(c2ccccc2)c2ccccc2)cc1 gave a GI50 [10] of 17.6 µM, a TGI [10] of 65.1 µM and a GI50 [1] of 13.6 µM. For the same compound, the TGI [1] was 27 µM, the GI50 [2] was 19.3 µM and the TGI [2] was 48.7 µM. For the same compound, the GI50 [3] was 17.8 µM, the TGI [3] was 36.6 µM and the GI50 [4] was 27.5 µM. It also gave a TGI [4] of over 100 µM, a GI50 [5] of 15.7 µM and a TGI [5] of 32.5 µM. The GI50 [7] was 12.3 µM, the TGI [7] was 25.2 µM and the GI50 [8] was 21.5 µM. It also gave a TGI [8] of 69.4 µM, a GI50 [9] of 13.3 µM and a TGI [9] of 27.8 µM.

In the case of C/C(=N\NC(=S)N1CCCCCC1)c1nccnc1C, the TGI [1] is reported as 50.2 µM, the TGI [2] is reported as over 100 µM and the TGI [4] is reported as over 100 µM. It also gave a TGI [5] of 12.2 µM, a TGI [6] of 2.95 µM and a TGI [7] of over 100 µM. It also gave a TGI [8] of over 100 µM.

In the case of CC(C)C[C@H](NC(=O)[C@H](Cc1ccccc1)n1ccc(N2CCCCC2)cc1=O)B(O)O, the GI50 [10] is reported as 0.427 µM, the TGI [10] is reported as 6.2 µM and the GI50 [1] is reported as 0.46 µM. The TGI [1] was 4.56 µM, the GI50 [2] was 1.33 µM and the TGI [2] was 4.38 µM. It also gave a GI50 [3] of 0.308 µM, a TGI [3] of over 100 µM and a GI50 [4] of 1.61 µM. For the same compound, the TGI [4] was 22.1 µM, the GI50 [5] was 0.367 µM and the TGI [5] was 3.11 µM. For the same compound, the GI50 [7] was 2.06 µM, the TGI [7] was over 100 µM and the GI50 [8] was 0.699 µM. It also gave a TGI [8] of 3.85 µM, a GI50 [9] of 0.706 µM and a TGI [9] of over 100 µM.
